Experimental data reported in patent publication US9493446B2, “Orexin receptor antagonists which are [ortho bi-(hetero-)aryl]-[2-(meta bi-(hetero-)aryl)-pyrrolidin-1-yl]-methanone derivatives” (Actelion Pharmaceuticals Ltd, priority 2012, dated 2016).
Where two headings read alike, the source gives them in different places.

Columns and labels:
human orexin-2 receptor = human orexin-2 receptor (Homo sapiens (Human), UniProt O43614); experiment: Intracellular calcium measurement (FLIPR), CHO cells expressing human orexin-2 receptor, 3 nM orexin-A; type: cell-based; settings: read-out: IC50 OX2
human orexin-2 receptor, sequence (O43614 whole entry): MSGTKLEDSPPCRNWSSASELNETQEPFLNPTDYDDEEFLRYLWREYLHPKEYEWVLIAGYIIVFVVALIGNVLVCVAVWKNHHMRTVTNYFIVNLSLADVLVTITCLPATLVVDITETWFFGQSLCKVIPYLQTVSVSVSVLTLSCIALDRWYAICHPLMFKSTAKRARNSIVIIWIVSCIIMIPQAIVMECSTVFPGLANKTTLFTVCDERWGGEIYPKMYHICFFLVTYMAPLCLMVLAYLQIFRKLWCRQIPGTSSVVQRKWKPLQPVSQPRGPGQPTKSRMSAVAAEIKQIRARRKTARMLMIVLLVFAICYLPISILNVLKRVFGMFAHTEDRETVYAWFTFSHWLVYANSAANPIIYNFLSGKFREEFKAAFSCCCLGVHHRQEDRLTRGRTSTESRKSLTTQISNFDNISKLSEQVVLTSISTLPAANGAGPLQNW
How it was run: (§1)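 CHO cells stably expressing each receptor were loaded with 3 μM fluo-4 AM plus 5 mM probenecid for 50 min at 37 °C, then equilibrated 30 min at rt.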

orexin-1 = orexin-1 (Homo sapiens (Human), UniProt O43613); experiment: Intracellular calcium measurement (FLIPR), CHO cells expressing human orexin-1 receptor, 3 nM orexin-A; type: cell-based; settings: CHO cells expressing human orexin-1 receptor, FLIPR, 3 nM orexin-A; geometric mean if determined several times; read-out: IC50 OX1
orexin-1, sequence (O43613 whole entry): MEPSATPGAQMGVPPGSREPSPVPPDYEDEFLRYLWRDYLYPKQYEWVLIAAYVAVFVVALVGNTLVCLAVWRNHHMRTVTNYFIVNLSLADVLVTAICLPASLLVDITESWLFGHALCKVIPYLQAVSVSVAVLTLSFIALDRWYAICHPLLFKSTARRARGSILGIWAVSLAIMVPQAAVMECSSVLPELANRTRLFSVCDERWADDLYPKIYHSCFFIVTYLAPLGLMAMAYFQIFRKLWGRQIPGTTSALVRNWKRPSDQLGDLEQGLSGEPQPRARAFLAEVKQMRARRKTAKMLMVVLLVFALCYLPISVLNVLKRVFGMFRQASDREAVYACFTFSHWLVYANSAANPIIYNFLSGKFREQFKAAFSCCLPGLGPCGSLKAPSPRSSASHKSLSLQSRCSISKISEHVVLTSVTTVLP
How it was run: as §1

[1] = CHO cells expressing human orexin-2 receptor, FLIPR, 3 nM orexin-A, geometric mean if determined several times

IC50 (human orexin-2 receptor; [1]) [nM] | IC50 (orexin-1) [nM] | Structure (SMILES) | IC50 (human orexin-2 receptor) [nM]
38 | 39 | CCOc1ccccc1-c1nnc([C@@H]2CCCN2C(=O)c2cc(C)ccc2-n2nccn2)[nH]1 [compound 495, {(S)-2-[5-(2-Ethoxy-phenyl)-4H-[1,2,4]triazol-3-yl]-pyrrolidin-1-yl}-(5-methyl-2-[1,2,3]triazol-2-yl-phenyl)-methanone] | 
14 | 40 | CCOc1ncccc1-c1noc([C@@H]2CCCN2C(=O)c2cc(C)ccc2-c2ccccn2)n1 [compound 217, {(S)-2-[3-(2-Ethoxy-pyridin-3-yl)-[1,2,4]oxadiazol-5-yl]-pyrrolidin-1-yl}-(5-methyl-2-pyridin-2-yl-phenyl)-methanone] | 
17 | 253 | CCOc1ncccc1-c1noc([C@@H]2CCCN2C(=O)c2cc(OC)c(F)cc2-n2nccn2)n1 [compound 223, {(S)-2-[3-(2-Ethoxy-pyridin-3-yl)-[1,2,4]oxadiazol-5-yl]-pyrrolidin-1-yl}-(4-fluoro-5-methoxy-2-[1,2,3]triazol-2-yl-phenyl)-methanone] | 
16 | 56 | COc1c(F)cccc1-c1noc([C@@H]2CCCN2C(=O)c2cc(C)ccc2-c2ccccn2)n1 [compound 203, {(S)-2-[3-(3-Fluoro-2-methoxy-phenyl)-[1,2,4]oxadiazol-5-yl]-pyrrolidin-1-yl}-(5-methyl-2-pyridin-2-yl-phenyl)-methanone] | 
6 | 57 | COc1cc(C(=O)N2CCC[C@H]2c2nnc(-c3cccc(F)c3OC)[nH]2)c(-n2nccn2)cc1C [compound 473, {(S)-2-[5-(3-Fluoro-2-methoxy-phenyl)-4H-[1,2,4]triazol-3-yl]-pyrrolidin-1-yl}-(5-methoxy-4-methyl-2-[1,2,3]triazol-2-yl-phenyl)-methanone] | 
114 | 104 | Cc1ccc(-n2nccn2)c(C(=O)N2CCC[C@@]2(C)c2nc(-c3cccc(Cl)c3C)no2)c1 [Example 541, {(S)-2-[3-(3-Chloro-2-methyl-phenyl)-[1,2,4]oxadiazol-5-yl]-2-methyl-pyrrolidin-1-yl}-(5-methyl-2-[1,2,3]triazol-2-yl-phenyl)-methanone] | 
38 | 489 | Cc1c(F)cccc1-c1noc([C@@H]2CCCN2C(=O)c2cc(F)ccc2-n2nccn2)n1 [compound 250, {(S)-2-[3-(3-Fluoro-2-methyl-phenyl)-[1,2,4]oxadiazol-5-yl]-pyrrolidin-1-yl}-(5-fluoro-2-[1,2,3]triazol-2-yl-phenyl)-methanone] | 
108 | 112 | COc1ccc2[nH]cc(-c3noc([C@@H]4CCCN4C(=O)c4cc(C)ccc4-n4nccn4)n3)c2c1 [compound 42, {(S)-2-[3-(5-Methoxy-1H-indol-3-yl)-[1,2,4]oxadiazol-5-yl]-pyrrolidin-1-yl}-(5-methyl-2-[1,2,3]triazol-2-yl-phenyl)-methanone] | 
2140 | 3430 | Cc1ccc(-n2nccn2)c(C(=O)N2CCC[C@H]2c2cn(-c3ccccc3)nn2)c1 [Example 536, (5-Methyl-2-[1,2,3]triazol-2-yl-phenyl)-[(S)-2-(1-phenyl-1H-[1,2,3]triazol-4-yl)-pyrrolidin-1-yl]-methanone] | 

Structure (SMILES) | IC50 (human orexin-2 receptor; [1]) [nM] | IC50 (orexin-1) [nM] | IC50 (human orexin-2 receptor) [nM]
Cc1cccc(-n2nccn2)c1C(=O)N1CCC[C@H]1c1nc(-c2cccc(Cl)c2C)no1 [compound 98] | 127 | 462 | 
Cc1cc(-n2nccn2)c(C(=O)N2CCC[C@H]2c2nnc(-c3ccccc3OC(F)(F)F)[nH]2)cc1Cl [compound 500] | 2 | 8 | 
COc1cccc(-c2nc([C@@H]3CCCN3C(=O)c3ccc(Cl)cc3-n3nccn3)no2)c1C [compound 362] |  | 171 | 100
CCOc1c(F)cccc1-c1nc([C@@H]2CCCN2C(=O)c2ccc(Cl)cc2-n2nccn2)no1 [compound 329] |  | 16 | 4
